Like-named read-outs stand apart in the source and are kept apart here. *1 amine or outer side, *2 acyl side, *3 side chain or, on linkers, in order; H or OH if unused. Where a SMILES comes first, the peptide text is derived from it. Bridges are numbered along the chain shown (N, C = ends). [ ]: non-standard residue; d: D form. The star is where a group is joined. hTyr(3S-OH,4S-OH,3'-OSO3H) = N[C@H](C(=O)O)[C@H](O)[C@@H](O)c1ccc(O)c(OS(=O)(=O)O)c1; Orn(4R-OH,5R-OH) = O=C([C@H](C[C@@H](O)[C@@H](O)N[*:3])N[*:1])[*:2]; Pro(3S-OH,4S-Me) = C[C@H]1CN[C@H](C(=O)O)[C@H]1O; X1 = CCCCCOc1ccc(-c2cc(-c3ccc(C(=O)*)cc3)no2)cc1; Gln(3R-OH) = NC(=O)C[C@@H](O)[C@H](N)C(=O)O; Hyp = O=C(O)[C@@H]1C[C@@H](O)CN1
How the values were obtained:
[1] = Treatment-emergent adverse events (TEAEs) in treated infants; type: in vivo, human
Method: In order to evaluate drug safety, we analyzed treatment-emergent adverse effects (TEAEs). TEAEs were defined as an adverse effect experienced any time during the study’s drug administration to 72 h after the last dose of the study drug. A reasonable possibility that the event could have been caused by the study drug was assessed by the investigators; if the relationship was missing, it was considered to be drug-related.

rats = rats treated for 3 months or more, dose of 150 mg/day (eight times the highest recommended human dose); cited from earlier work
[2] = ref 1 (Yanni et al.), cited from earlier work
Method: Yanni et al. observed an increased clearance of micafungin in infants and children: 40–80 mL/h/kg in premature infants and 20 mL/h/kg in children >4 months of age.

[3] = cited from earlier work
Description: This mechanism of action explains their characteristics of high specificity, even against resistant species of Candida. Micafungin is primarily eliminated via biliary excretion (90%), while the route of elimination via the kidney appears to be of minor importance in humans. Micafungin is bound to plasma proteins up to 99.5%. The binding to plasma proteins seems to be a ...

[4] = Micafungin concentrations in cerebrospinal fluid of infants with Candida meningitis (HPLC); type: in vivo; conditions: human, iv; for Kp at 1 h / Kp at 8 h / Kp: CSF (ratio to plasma); for Kp at 1 h: read-out: CSF/plasma ratio after 1 h; for Kp at 8 h: read-out: CSF/plasma ratio after 8 h; for Kp: read-out: CSF/plasma ratio before infusion; for level at 1 h / level at 8 h / level at -1 h: cerebrospinal fluid, HPLC; for level at 1 h: read-out: CSF values after 1 h; for level at 8 h: read-out: CSF values after 8 h; for level at -1 h: read-out: CSF values before infusion
Method: Micafungin plasma and CSF concentrations were measured 1 h before and 1, 2, and 8 h after the end of the infusion. Sampling overlapped with those required for the clinical monitoring of these critical children. Blood samples were collected via heel puncture, using 0.3 mL capillary microtubes with EDTA, between Days 3 and 10 of micafungin therapy. Five minutes prior to sampling, the heel was warmed with a hot compress (40 °C), and puncture was performed using a Gentleheel incision device (Cardinal Health, Dublin, OH, USA) at alternate sites per timepoint. Blood picked up was centrifuged at 3000× g, and the plasma residue was stored at 4 °C until analyzed within 6 h or frozen at −20 °C and analyzed within 7 days, as previously reported. Drug concentrations were measured via high-performance liquid chromatography (HPLC). An HPLC method with a diode array detector was validated to fine-tune the measurement on small amounts of plasma (0.3 mL whole blood). […]

[5] = rabbit model of neonatal HCME; highest concentrations within meninges and choroid; ref 2 (Hope et al.); cited from earlier work
Description: In extremely low-birth-weight infants (<1 kg at birth) with invasive candidiasis, the probability of the central nervous system involvement during infection varies from 45% to 63% of cases. Micafungin concentration values in CSF are difficult to obtain if an external shunt has not been placed previously. Moreover, interpreting these values in vivo is not easy, considering that the fungal involvement of the central nervous system in neonatal age is typically hematogenous Candida meningoencephalitis (HCME). Hope et al. studied the pharmacokinetics and pharmacodynamics of micafungin in a r ...

[6] = Micafungin plasma pharmacokinetics in neonates and young infants (HPLC); type: in vivo, human; conditions: for level at 1 h: read-out: Plasma values after 1 h; for level at 8 h: read-out: Plasma values after 8 h; for level at -1 h: read-out: Plasma values before infusion
Method: The dosage was formulated as a 2 mg/mL solution in 0.9% saline solution and administered intravenously over 1 h once daily. Infants who died within the first 48 h and those with acute or chronic hepatic diseases and/or known hypersensitivity to echinocandins were excluded. Each study with specific inclusion/exclusion criteria and definitions has been described in detail elsewhere.
Micafungin plasma and CSF concentrations were measured 1 h before and 1, 2, and 8 h after the end of the infusion. Sampling overlapped with those required for the clinical monitoring of these critical children. Blood samples were collected via heel puncture, using 0.3 mL capillary microtubes with EDTA, between Days 3 and 10 of micafungin therapy. Five minutes prior to sampling, the heel was warmed with a hot compress (40 °C), and puncture was performed using a Gentleheel incision device (Cardinal Health, Dublin, OH, USA) at alternate sites per timepoint. Blood picked up was centrifuged at 3000× g, and the plasma residue was stored at 4 °C until analyzed within 6 h or frozen at −20 °C and analyzed within 7 days, as previously reported. Drug concentrations were measured via high-performance liquid chromatography (HPLC). An HPLC method with a diode array detector was validated to fine-tune the measurement on small amounts of plasma (0.3 mL whole blood).
Moreover, we assessed the optimal dosage to obtain systemic drug exposure equivalent to that considered to be effective in adult patients. Systemic drug exposure was assessed via the area under the curve for 24 h (AUC0–24), the plasma clearance (CL), and the half-life. Results were stratified according to chronological age.

[7] = 7 mg/kg/day, Patient 1, dose 7 mg/kg/day iv
[8] = 8 mg/kg/day, Patient 3, dose 8 mg/kg/day iv
[9] = 10 mg/kg/day, Patient 1, dose 10 mg/kg/day iv
[10] = 10 mg/kg/day, Patient 2, dose 10 mg/kg/day iv
[11] = 15 mg/kg/day, Patient 2, dose 15 mg/kg/day iv
[12] = human, iv, 7 mg/kg/day, Patient 1, dose 7 mg/kg/day iv, HPLC
[13] = human, iv, 8 mg/kg/day, Patient 3, dose 8 mg/kg/day iv, HPLC
[14] = human, iv, 10 mg/kg/day, Patient 1, dose 10 mg/kg/day iv, HPLC
[15] = human, iv, 10 mg/kg/day, Patient 2, dose 10 mg/kg/day iv, HPLC
[16] = human, iv, 15 mg/kg/day, Patient 2, dose 15 mg/kg/day iv, HPLC

For `CCCCCOc1ccc(-c2cc(-c3ccc(C(=O)N[C@H]4C[C@@H](O)[C@@H](O)NC(=O)[C@@H]5[C@@H](O)[C@@H](C)CN5C(=O)[C@H]([C@H](O)CC(N)=O)NC(=O)[C@H]([C@H](O)[C@@H](O)c5ccc(O)c(OS(=O)(=O)O)c5)NC(=O)[C@@H]5C[C@@H](O)CN5C(=O)[C@H]([C@@H](C)O)NC4=O)cc3)no2)cc1` [micafungin] (X1-[Orn(4R-OH,5R-OH)]T[Hyp][hTyr(3S-OH,4S-OH,3'-OSO3H)][Gln(3R-OH)][Pro(3S-OH,4S-Me)]; lactam 1-C), the “Patients with overall treatment-emergent adverse events (TEAEs)” value ([1]; 53 infants, 8-15 mg/kg/day iv, thirty-four patients) was 64.2%, the “Patients with transient hypertransaminasaemia” value ([1]; 53 infants, one patient, drug-related TEAE) was 1.9% and the “Drug-related TEAEs (not serious)” value ([1]; 53 infants, three TEAEs) was 5.7%. The “TEAEs leading to death (septic shock, not drug-related)” value ([1]; 53 infants, three cases) was 5.7%, the “Patients with transiently increased levels of gamma-glutamyltransferase” value ([1]; 53 infants, two patients, drug-related TEAE) was 3.8% and the “Serious adverse events related to the therapy” value ([1]; high doses 8–15 mg/kg/day in neonates and infants) was “no serious adverse events”. For the same compound, the “Hepatotoxicity finding in rats” value (rats) was “development of hepatocellular tumors”, the clearance ([2]; children >4 months of age) was 0.333 mL/min/kg and the clearance ([2]; premature infants) was 0.667 to 1.33 mL/min/kg. For the same compound, the “Bound to plasma proteins” value [3] was “up to 99.5%”, the “Elimination via biliary excretion” value ([3]; humans) was 90% and the Kp at 1 h [4, 7] was 0.01. For the same compound, the Kp at 8 h [4, 7] was 0.02, the Kp [4, 7] was 0.05 and the Kp at 1 h [4, 8] was 0.06. The Kp at 8 h [4, 8] was 0.08, the Kp [4, 8] was 0.22 and the Kp at 1 h [4, 9] was 0.06. For the same compound, the Kp at 8 h [4, 9] was 0.19, the Kp [4, 9] was 0.38 and the Kp at 1 h [4, 10] was 0.03. It also gave a Kp at 8 h [4, 10] of 0.03, a Kp [4, 10] of 0.06 and a Kp at 1 h [4, 11] of 0.05. It also gave a Kp at 8 h [4, 11] of 0.07, a Kp [4, 11] of 0.16 and a level at 1 h [4, 7] of 150 ng/mL. It also gave a level at 8 h [4, 7] of 150 ng/mL, a level at -1 h [4, 7] of 150 ng/mL and a level at 1 h [4, 8] of 1700 ng/mL. For the same compound, the level at 8 h [4, 8] was 1300 ng/mL, the level at -1 h [4, 8] was 2000 ng/mL and the level at 1 h [4, 9] was 1230 ng/mL. It also gave a level at 8 h [4, 9] of 1230 ng/mL, a level at -1 h [4, 9] of 1230 ng/mL and a level at 1 h [4, 10] of 500 ng/mL. The level at 8 h [4, 10] was 300 ng/mL, the level at -1 h [4, 10] was 400 ng/mL and the level at 1 h [4, 11] was 1100 ng/mL. The level at 8 h [4, 11] was 800 ng/mL, the level at -1 h [4, 11] was 900 ng/mL and the “Detection of micafungin within the CSF” value [5] was “not reliably detected”. For the same compound, the half-life ([6]; age 0 to ≤28 days (n = 16), 8-15 mg/kg/day iv, mean ± SD, SD) was 13.5 ± 7.6 h, the Clearance/weight ([6]; age >28 days ≤120 days (n = 23), 8-15 mg/kg/day iv, mean ± SD, SD) was 0.6 ± 0.167 mL/min/kg and the level at 1 h [6, 12] was 15600 ng/mL. The level at 8 h [6, 12] was 8900 ng/mL, the level at -1 h [6, 12] was 2900 ng/mL and the level at 1 h [6, 13] was 27000 ng/mL. For the same compound, the level at 8 h [6, 13] was 16800 ng/mL, the level at -1 h [6, 13] was 9120 ng/mL and the level at 1 h [6, 14] was 21700 ng/mL. The level at 8 h [6, 14] was 6580 ng/mL, the level at -1 h [6, 14] was 3200 ng/mL and the level at 1 h [6, 15] was 17400 ng/mL. It also gave a level at 8 h [6, 15] of 8900 ng/mL, a level at -1 h [6, 15] of 6700 ng/mL and a level at 1 h [6, 16] of 21900 ng/mL. The level at 8 h [6, 16] was 12200 ng/mL, the level at -1 h [6, 16] was 5800 ng/mL and the clearance ([6]; human, iv, age 0 to ≤28 days (n = 16), 8-15 mg/kg/day iv over 1 h once daily, HPLC, mean ± SD, SD, read-out: Clearance (converted)) was 1.2 mL/min. For the same compound, the clearance ([6]; human, iv, age 0 to ≤28 days (n = 16), 8-15 mg/kg/day iv, mean ± SD, SD, read-out: Clearance/weight (converted)) was 0.6 mL/min/kg, the clearance ([6]; human, iv, age >28 days ≤120 days (n = 23), 8-15 mg/kg/day iv over 1 h once daily, HPLC, mean ± SD, SD, read-out: Clearance (converted)) was 1.45 mL/min and the half-life ([6]; human, iv, age >28 days ≤120 days (n = 23), 8-15 mg/kg/day iv, mean ± SD, SD, read-out: Half-life (converted)) was 13.4 ± 4.3 h. It also gave a clearance ([6]; human, iv, age >120 days (n = 13), 8-15 mg/kg/day iv over 1 h once daily, HPLC, mean ± SD, SD, read-out: Clearance (converted)) of 1.82 mL/min, a clearance ([6]; human, iv, age >120 days (n = 13), 8-15 mg/kg/day iv, mean ± SD, SD, read-out: Clearance/weight (converted)) of 0.467 mL/min/kg and a half-life ([6]; human, iv, age >120 days (n = 13), 8-15 mg/kg/day iv, mean ± SD, SD, read-out: Half-life (converted)) of 14.4 ± 4.2 h. The AUC(0-t) ([6]; human, iv, plasma AUC0–24, age 0 to ≤28 days (n = 16), 8-15 mg/kg/day iv, mean ± SD, SD) was 259 ± 92.7 µg·h/mL, the AUC(0-t) ([6]; human, iv, plasma AUC0–24, age >28 days ≤120 days (n = 23), 8-15 mg/kg/day iv, mean ± SD, SD) was 237 ± 63.9 µg·h/mL and the AUC(0-t) ([6]; human, iv, plasma AUC0–24, age >120 days (n = 13), 8-15 mg/kg/day iv, mean ± SD, SD) was 346 ± 145 µg·h/mL.
